Laboratory results published in ChEMBL document CHEMBL1135212, “Evolution, synthesis and SAR of tripeptide alpha-ketoacid inhibitors of the hepatitis C virus NS3/NS4A serine protease” (Bioorg Med Chem Lett, 2002).
pIC50, pKi: −log10 of the molar value. Square brackets hold non-standard residues; d marks the D form. Peptide text beside a SMILES is read from it. Dip = N[C@H](C(=O)O)C(c1ccccc1)c1ccccc1; Abu(4,4-F2) = N[C@@H](CC(F)F)C(=O)O; Cha = N[C@@H](CC1CCCCC1)C(=O)O

Key:
[1] = target: Genome polyprotein (Hepatitis C virus genotype 1a (isolate 1) (HCV), UniProt P26664); test: Inhibition to hepatitis C virus (HCV) NS3/NS4A serine protease
Sequence of Genome polyprotein (P26664 1027-1657 limits assumed): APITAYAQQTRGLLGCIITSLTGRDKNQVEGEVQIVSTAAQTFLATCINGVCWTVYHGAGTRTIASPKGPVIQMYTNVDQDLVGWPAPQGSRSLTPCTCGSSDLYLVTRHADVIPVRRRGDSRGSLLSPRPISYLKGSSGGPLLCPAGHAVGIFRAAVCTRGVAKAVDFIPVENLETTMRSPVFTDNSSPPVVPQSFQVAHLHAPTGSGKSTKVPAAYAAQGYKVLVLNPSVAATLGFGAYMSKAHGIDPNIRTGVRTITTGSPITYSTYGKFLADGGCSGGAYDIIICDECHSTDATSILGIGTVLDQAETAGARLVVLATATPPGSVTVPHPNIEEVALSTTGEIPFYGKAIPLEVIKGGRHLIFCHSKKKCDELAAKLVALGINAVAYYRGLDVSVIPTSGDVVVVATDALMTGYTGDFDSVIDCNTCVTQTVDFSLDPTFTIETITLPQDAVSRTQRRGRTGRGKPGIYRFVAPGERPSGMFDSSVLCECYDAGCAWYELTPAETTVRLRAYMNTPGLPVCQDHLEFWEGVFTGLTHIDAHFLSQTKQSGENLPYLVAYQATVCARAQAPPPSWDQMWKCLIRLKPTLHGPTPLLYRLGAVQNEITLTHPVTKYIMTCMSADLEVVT
Sequence of Genome polyprotein (P26664 1658-1711 limits assumed): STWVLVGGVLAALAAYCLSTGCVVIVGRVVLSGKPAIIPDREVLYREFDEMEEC

[2] = target: Hepatitis C virus serine protease, NS3/NS4A (Hepatitis C virus, UniProt A3EZI9+D2K2A8); test: Inhibitory activity against hepatitis C virus (HCV) NS3/NS4A serine protease; assay type: protein-complex assay, Hepacivirus hominis
Sequence of Hepatitis C virus serine protease, NS3/NS4A (D2K2A8 whole entry): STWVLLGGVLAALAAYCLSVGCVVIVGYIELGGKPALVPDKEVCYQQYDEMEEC
Sequence of Hepatitis C virus serine protease, NS3/NS4A (A3EZI9 whole entry): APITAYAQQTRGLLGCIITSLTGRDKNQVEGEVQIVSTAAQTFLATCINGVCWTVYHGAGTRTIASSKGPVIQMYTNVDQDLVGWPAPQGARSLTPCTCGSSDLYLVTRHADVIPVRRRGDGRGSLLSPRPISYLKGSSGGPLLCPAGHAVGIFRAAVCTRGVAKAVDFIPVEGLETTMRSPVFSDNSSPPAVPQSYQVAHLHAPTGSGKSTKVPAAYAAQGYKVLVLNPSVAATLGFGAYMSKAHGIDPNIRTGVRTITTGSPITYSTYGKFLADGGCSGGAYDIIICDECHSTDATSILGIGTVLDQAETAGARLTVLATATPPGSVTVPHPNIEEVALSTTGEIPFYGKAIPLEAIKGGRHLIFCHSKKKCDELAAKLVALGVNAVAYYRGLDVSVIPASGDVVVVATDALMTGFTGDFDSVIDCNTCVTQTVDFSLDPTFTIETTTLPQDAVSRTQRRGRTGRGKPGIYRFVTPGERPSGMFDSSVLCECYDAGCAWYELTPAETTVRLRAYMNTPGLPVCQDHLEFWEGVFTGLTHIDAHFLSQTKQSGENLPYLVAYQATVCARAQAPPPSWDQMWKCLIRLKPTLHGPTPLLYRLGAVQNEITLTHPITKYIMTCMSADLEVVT

| pIC50 [1] | pKi [2] | Compound |
| --- | --- | --- |
| 6.52 | – | CC(C)(C)OC(=O)N[C@@H](CCC(=O)O)C(=O)N[C@@H](CC(F)F)C(=O)N[C@@H](CC(F)F)C(=O)C(=O)O |
| 5.48 | – | CCC(C)[C@H](NC(=O)NCc1ccccc1)C(=O)N[C@@H](CC(C)C)C(=O)N[C@@H](CC(F)F)C(=O)C(=O)O (stereo partly drawn) |
| 5.03 | – | CCC(C)[C@H](NC(=O)OCc1ccccc1)C(=O)N[C@@H](Cc1ccccc1)C(=O)N[C@@H](CC(F)F)C(=O)C(=O)O (stereo partly drawn) |
| < 4.30 | – | CC(=O)N[C@H](C(=O)[C@H](CCC(=O)O)N[C@@H](CC1CCCCC1)C(=O)N[C@H](C=O)CC(F)F)C(c1ccccc1)c1ccccc1 |
| 6.48 | – | CC(C)C[C@H](NC(=O)[C@H](CCC(=O)O)NC(=O)OC(C)(C)C)C(=O)N[C@@H](CC(F)F)C(=O)C(=O)O |
| 5.48 | – | CC[C@H](NC(=O)[C@@H](NC(=O)OCc1ccccc1)[C@@H](C)CC)C(=O)N[C@@H](CC(F)F)C(=O)C(=O)O |
| < 4.00 | – | CC[C@H](C)[C@H](NC(=O)OCc1ccccc1)C(=O)NCC(=O)N[C@@H](CC(F)F)C(=O)C(=O)O |
| 6.36 | – | CCC(C)[C@H](NC(=O)OCc1ccc(C(=O)O)cc1)C(=O)N[C@@H](CC(C)C)C(=O)N[C@@H](CC(F)F)C(=O)C(=O)O (stereo partly drawn) |
| < 4.30 | – | CC(=O)N[C@H](C(=O)[C@H](CCC(=O)O)N[C@@H](CC1CCCCC1)C(=O)N[C@@H](CC(F)F)C(=O)O)C(c1ccccc1)c1ccccc1 |
| 5.85 | – | CC[C@H](C)[C@H](NC(=O)OCc1ccccc1)C(=O)N[C@@H](CC1CCCCC1)C(=O)N[C@@H](CC(F)F)C(=O)C(=O)O |
| 5.28 | – | CC(=O)N[C@H](C(=O)[C@H](CCC(=O)O)N[C@@H](CC1CCCCC1)C(=O)N[C@@H](CC(F)F)C(=O)C(=O)O)C(c1ccccc1)c1ccccc1 |
| 5.77 | – | CC[C@H](C)[C@H](NC(=O)OCc1ccccc1)C(=O)N[C@@H](CC(C)C)C(=O)N[C@@H](CC(F)F)C(=O)C(=O)O |
| – | 7.40 | CC(=O)N[C@@H](CC(=O)O)C(=O)N[C@@H](CCC(=O)O)C(=O)N[C@H](C(=O)N[C@@H](CCC(=O)O)C(=O)N[C@@H](CC1CCCCC1)C(=O)N[C@@H](CC(F)F)C(=O)O)C(c1ccccc1)c1ccccc1 (Ac-DE[Dip]E[Cha][Abu(4,4-F2)]-OH) |

Further lines, the compound ahead of its results:

| Compound | pIC50 [1] | pKi [2] |
| --- | --- | --- |
| CCC(C)[C@H](NC(=O)OCc1ccccc1)C(=O)N[C@@H](CC(C)C)C(=O)N[C@H](CC(=O)O)CC(F)F (stereo partly drawn) | < 4.30 | – |
| CCC(C)[C@H](NC(=O)OCc1ccccc1)C(=O)N[C@@H](CC(C)C)C(=O)N[C@@H](CC(F)F)C(=O)C(=O)OC (stereo partly drawn) | < 4.30 | – |
| CCC(C)[C@H](NC(=O)OCc1ccccc1)C(=O)N[C@@H](CC(C)C)C(=O)N[C@@H](CC(F)F)C(O)C(=O)O (stereo partly drawn) | < 4.30 | – |
| CCC(C)[C@H](NC(=O)OCc1ccc(C(=O)OC)cc1)C(=O)N[C@@H](CC(C)C)C(=O)N[C@@H](CC(F)F)C(=O)C(=O)O (stereo partly drawn) | 5.77 | – |
| CC(C)C[C@H](NC(=O)[C@H](CC(=O)O)NC(=O)OC(C)(C)C)C(=O)N[C@@H](CC(F)F)C(=O)C(=O)O | 5.79 | – |
| CC[C@H](C)[C@H](NC(=O)OCc1ccccc1)C(=O)N[C@@H](CC(C)C)C(=O)N[C@H](C=O)CC(F)F | < 4.30 | – |
| CC[C@H](C)[C@H](NC(C)=O)C(=O)N[C@@H](CC(C)C)C(=O)N[C@@H](CC(F)F)C(=O)C(=O)O | 4.80 | – |
| CC[C@H](C)[C@H](NC(=O)OC(C)(C)C)C(=O)N[C@@H](CC(C)C)C(=O)N[C@@H](CC(F)F)C(=O)C(=O)O | 6.00 | – |
| CC[C@H](C)[C@H](NC(=O)OCc1ccccc1)C(=O)N[C@@H](C)C(=O)N[C@@H](CC(F)F)C(=O)C(=O)O | 4.81 | – |
| CC(C)C[C@H](NC(=O)[C@@H](NC(=O)OC(C)(C)C)C1CCCC1)C(=O)N[C@@H](CC(F)F)C(=O)C(=O)O | 6.42 | – |
| CC[C@H](C)[C@H](NC(=O)OCc1ccccc1)C(=O)N[C@@H](CC(C)C)C(=O)N[C@@H](CC(F)F)C(=O)c1nnn[nH]1 | < 4.30 | – |
| CCC(C)[C@H](NC(=O)OCc1ccccc1)C(=O)N[C@H](C(=O)N[C@@H](CC(F)F)C(=O)C(=O)O)C(C)C (stereo partly drawn) | 4.80 | – |
| CC(C)C[C@H](NC(=O)[C@@H](NC(=O)OC(C)(C)C)C(C)C)C(=O)N[C@@H](CC(F)F)C(=O)C(=O)O | 6.34 | – |
| CC(C)C[C@H](NC(=O)[C@H](C)NC(=O)OC(C)(C)C)C(=O)N[C@@H](CC(F)F)C(=O)C(=O)O | 5.05 | – |
| CC(C)C[C@H](NC(=O)[C@H](CCC(N)=O)NC(=O)OC(C)(C)C)C(=O)N[C@@H](CC(F)F)C(=O)C(=O)O | 5.68 | – |
